Assay results taken from US12194124B2, “Personal care compositions for treating odor causing bacteria and methods for the same” (Colgate-Palmolive Company, priority 2019, dated 2025).

System: S. Epidermidis
Experiment: Growth inhibition assay in 96-well plate, optical density of S. Epidermidis
Format: cell-based, Staphylococcus epidermidis
Procedure: The efficacy of 2-butyl octanol for selectively promoting, inhibiting, reducing, and/or treating bacterial growth was evaluated. Particularly, the efficacy of 2-butyl octanol for selectively promoting, inhibiting, reducing, and/or treating bacterial growth of Corynebacterium and Staphylococcus was evaluated. To evaluate the efficacy, an active solution was prepared by emulsifying 2-butyl octanol with a nonionic surfactant, namely, Polysorbate 80. The active solution included the 2-butyl octanol and the Polysorbate 80 in a ratio of about 83:17. Both positive controls (including no active solution) and negative controls (including no bacteria) were also prepared.
A 96-well plate was utilized to evaluate the growth of the respective bacteria at varying dilutions. Each of the wells of a 96-well plate was aseptically filled with about 100 μL of Tryptic Soy Broth (TSB). In the first well of each row, about 100 μL of either the active solution (including the 2-butyl octanol and Polysorbate 80) or the desired solvent for the respective positive and negative controls was added to thereby provide a total of about 200 μL in the first well of the each respective row. A multi-channel pipette was then utilized to prepare a two-fold dilution in each column. Specifically, a multi-channel pipette set to about 100 μL was utilized to mix and transfer about 100 μL of the 200 μL from the wells of the first column to the respective wells of a subsequent column. This was repeated for each of the remaining eleven columns. About 100 μL of the twelfth column was removed, thereby leaving about 100 μL in each of the 96 wells. […] Specifically, a phosphate buffered saline (PBS) was utilized for the negative control. About 100 μL of the respective bacteria adjusted to 0.1 optical density (OD) bacteria was added to all other wells. The well plate was then incubated overnight at about 37° C. in a growth inhibition assay machine. Measurements were taken at about one hour increments.

SMILES: CCCCCCC(CO)CCCC (stereo not shown) [2-butyl octanol, 2-butyl-1-octanol]
- Measured Optical Density of S. Epidermidis (0.02% 2-Butyl Octanol, 1 Hour): 0.07
- Measured Optical Density of S. Epidermidis (0.02% 2-Butyl Octanol, 2 Hour): 0.327
- Measured Optical Density of S. Epidermidis (0.02% 2-Butyl Octanol, 3 Hour): 0.519
- Measured Optical Density of S. Epidermidis (0.02% 2-Butyl Octanol, 4 Hour): 0.561
- Measured Optical Density of S. Epidermidis (0.02% 2-Butyl Octanol, 5 Hour): 0.548
- Measured Optical Density of S. Epidermidis (0.02% 2-Butyl Octanol, 6 Hour): 0.564
- Measured Optical Density of S. Epidermidis (0.02% 2-Butyl Octanol, 7 Hour): 0.586
- Measured Optical Density of S. Epidermidis (0.02% 2-Butyl Octanol, 8 Hour): 0.593
- Measured Optical Density of S. Epidermidis (0.02% 2-Butyl Octanol, 9 Hour): 0.602
- Measured Optical Density of S. Epidermidis (0.02% 2-Butyl Octanol, 10 Hour): 0.623
- Measured Optical Density of S. Epidermidis (0.02% 2-Butyl Octanol, 11 Hour): 0.652
- Measured Optical Density of S. Epidermidis (0.02% 2-Butyl Octanol, 12 Hour): 0.651
- Measured Optical Density of S. Epidermidis (0.02% 2-Butyl Octanol, 13 Hour): 0.66
- Measured Optical Density of S. Epidermidis (0.02% 2-Butyl Octanol, 14 Hour): 0.689
- Measured Optical Density of S. Epidermidis (0.02% 2-Butyl Octanol, 15 Hour): 0.809
- Measured Optical Density of S. Epidermidis (0.02% 2-Butyl Octanol, 16 Hour): 0.893
- Measured Optical Density of S. Epidermidis (0.02% 2-Butyl Octanol, 17 Hour): 0.951
- Measured Optical Density of S. Epidermidis (0.02% 2-Butyl Octanol, 18 Hour): 0.97
- Measured Optical Density of S. Epidermidis (0.04% 2-Butyl Octanol, 1 Hour): 0.088
- Measured Optical Density of S. Epidermidis (0.04% 2-Butyl Octanol, 2 Hour): 0.351
- Measured Optical Density of S. Epidermidis (0.04% 2-Butyl Octanol, 3 Hour): 0.55
- Measured Optical Density of S. Epidermidis (0.04% 2-Butyl Octanol, 4 Hour): 0.583
- Measured Optical Density of S. Epidermidis (0.04% 2-Butyl Octanol, 5 Hour): 0.578
- Measured Optical Density of S. Epidermidis (0.04% 2-Butyl Octanol, 6 Hour): 0.592
- Measured Optical Density of S. Epidermidis (0.04% 2-Butyl Octanol, 7 Hour): 0.613
- Measured Optical Density of S. Epidermidis (0.04% 2-Butyl Octanol, 8 Hour): 0.64
- Measured Optical Density of S. Epidermidis (0.04% 2-Butyl Octanol, 9 Hour): 0.651
- Measured Optical Density of S. Epidermidis (0.04% 2-Butyl Octanol, 10 Hour): 0.664
- Measured Optical Density of S. Epidermidis (0.04% 2-Butyl Octanol, 11 Hour): 0.666
- Measured Optical Density of S. Epidermidis (0.04% 2-Butyl Octanol, 12 Hour): 0.656
- Measured Optical Density of S. Epidermidis (0.04% 2-Butyl Octanol, 13 Hour): 0.652
- Measured Optical Density of S. Epidermidis (0.04% 2-Butyl Octanol, 14 Hour): 0.675
- Measured Optical Density of S. Epidermidis (0.04% 2-Butyl Octanol, 15 Hour): 0.756
- Measured Optical Density of S. Epidermidis (0.04% 2-Butyl Octanol, 16 Hour): 0.825
- Measured Optical Density of S. Epidermidis (0.04% 2-Butyl Octanol, 17 Hour): 0.915
- Measured Optical Density of S. Epidermidis (0.04% 2-Butyl Octanol, 18 Hour): 0.961
- Measured Optical Density of S. Epidermidis (0.08% 2-Butyl Octanol, 1 Hour): 0.111
- Measured Optical Density of S. Epidermidis (0.08% 2-Butyl Octanol, 2 Hour): 0.482
- Measured Optical Density of S. Epidermidis (0.08% 2-Butyl Octanol, 3 Hour): 0.688
- Measured Optical Density of S. Epidermidis (0.08% 2-Butyl Octanol, 4 Hour): 0.703
- Measured Optical Density of S. Epidermidis (0.08% 2-Butyl Octanol, 5 Hour): 0.684
- Measured Optical Density of S. Epidermidis (0.08% 2-Butyl Octanol, 6 Hour): 0.677
- Measured Optical Density of S. Epidermidis (0.08% 2-Butyl Octanol, 7 Hour): 0.662
- Measured Optical Density of S. Epidermidis (0.08% 2-Butyl Octanol, 8 Hour): 0.652
- Measured Optical Density of S. Epidermidis (0.08% 2-Butyl Octanol, 9 Hour): 0.653
- Measured Optical Density of S. Epidermidis (0.08% 2-Butyl Octanol, 10 Hour): 0.658
- Measured Optical Density of S. Epidermidis (0.08% 2-Butyl Octanol, 11 Hour): 0.646
- Measured Optical Density of S. Epidermidis (0.08% 2-Butyl Octanol, 12 Hour): 0.63
- Measured Optical Density of S. Epidermidis (0.08% 2-Butyl Octanol, 13 Hour): 0.632
- Measured Optical Density of S. Epidermidis (0.08% 2-Butyl Octanol, 14 Hour): 0.662
- Measured Optical Density of S. Epidermidis (0.08% 2-Butyl Octanol, 15 Hour): 0.741
- Measured Optical Density of S. Epidermidis (0.08% 2-Butyl Octanol, 16 Hour): 0.795
- Measured Optical Density of S. Epidermidis (0.08% 2-Butyl Octanol, 17 Hour): 0.883
- Measured Optical Density of S. Epidermidis (0.08% 2-Butyl Octanol, 18 Hour): 0.943
- Measured Optical Density of S. Epidermidis (0.16% 2-Butyl Octanol, 1 Hour): 0.148
- Measured Optical Density of S. Epidermidis (0.16% 2-Butyl Octanol, 2 Hour): 0.564
- Measured Optical Density of S. Epidermidis (0.16% 2-Butyl Octanol, 3 Hour): 0.76
- Measured Optical Density of S. Epidermidis (0.16% 2-Butyl Octanol, 4 Hour): 0.786
- Measured Optical Density of S. Epidermidis (0.16% 2-Butyl Octanol, 5 Hour): 0.778
- Measured Optical Density of S. Epidermidis (0.16% 2-Butyl Octanol, 6 Hour): 0.764
- Measured Optical Density of S. Epidermidis (0.16% 2-Butyl Octanol, 7 Hour): 0.757
- Measured Optical Density of S. Epidermidis (0.16% 2-Butyl Octanol, 8 Hour): 0.741
- Measured Optical Density of S. Epidermidis (0.16% 2-Butyl Octanol, 9 Hour): 0.729
- Measured Optical Density of S. Epidermidis (0.16% 2-Butyl Octanol, 10 Hour): 0.726
- Measured Optical Density of S. Epidermidis (0.16% 2-Butyl Octanol, 11 Hour): 0.718
- Measured Optical Density of S. Epidermidis (0.16% 2-Butyl Octanol, 12 Hour): 0.702
- Measured Optical Density of S. Epidermidis (0.16% 2-Butyl Octanol, 13 Hour): 0.695
- Measured Optical Density of S. Epidermidis (0.16% 2-Butyl Octanol, 14 Hour): 0.702
- Measured Optical Density of S. Epidermidis (0.16% 2-Butyl Octanol, 15 Hour): 0.764
- Measured Optical Density of S. Epidermidis (0.16% 2-Butyl Octanol, 16 Hour): 0.801
- Measured Optical Density of S. Epidermidis (0.16% 2-Butyl Octanol, 17 Hour): 0.844
- Measured Optical Density of S. Epidermidis (0.16% 2-Butyl Octanol, 18 Hour): 0.874
- growth of S. epidermidis (2-butyl octanol about 0.02 weight % to about 5.2 weight %): did not inhibit the growth of and/or promoted the growth of
- Measured Optical Density of S. Epidermidis (5.2% 2-Butyl Octanol, 1 Hour): 0.257
- Measured Optical Density of S. Epidermidis (5.2% 2-Butyl Octanol, 2 Hour): 0.501
- Measured Optical Density of S. Epidermidis (5.2% 2-Butyl Octanol, 3 Hour): 0.583
- Measured Optical Density of S. Epidermidis (5.2% 2-Butyl Octanol, 4 Hour): 0.624
- Measured Optical Density of S. Epidermidis (5.2% 2-Butyl Octanol, 5 Hour): 0.665
- Measured Optical Density of S. Epidermidis (5.2% 2-Butyl Octanol, 6 Hour): 0.723
- Measured Optical Density of S. Epidermidis (5.2% 2-Butyl Octanol, 7 Hour): 0.855
- Measured Optical Density of S. Epidermidis (5.2% 2-Butyl Octanol, 8 Hour): 0.918
- Measured Optical Density of S. Epidermidis (5.2% 2-Butyl Octanol, 9 Hour): 0.994
- Measured Optical Density of S. Epidermidis (5.2% 2-Butyl Octanol, 10 Hour): 1.052
- Measured Optical Density of S. Epidermidis (5.2% 2-Butyl Octanol, 11 Hour): 1.067
- Measured Optical Density of S. Epidermidis (5.2% 2-Butyl Octanol, 12 Hour): 1.066
- Measured Optical Density of S. Epidermidis (5.2% 2-Butyl Octanol, 13 Hour): 1.081
- Measured Optical Density of S. Epidermidis (5.2% 2-Butyl Octanol, 14 Hour): 1.105
- Measured Optical Density of S. Epidermidis (5.2% 2-Butyl Octanol, 15 Hour): 1.118
- Measured Optical Density of S. Epidermidis (5.2% 2-Butyl Octanol, 16 Hour): 1.127
- Measured Optical Density of S. Epidermidis (5.2% 2-Butyl Octanol, 17 Hour): 1.142
- Measured Optical Density of S. Epidermidis (5.2% 2-Butyl Octanol, 18 Hour): 1.127
